Test results from PMC8398451, “Molecular Engineering of Curcumin, an Active Constituent of Curcuma longa L. (Turmeric) of the Family Zingiberaceae with Improved Antiproliferative Activity” (Plants, 2021).
Read-outs that look alike come from different tables or passages of the source.

Columns and labels:
K-562 = assay: NCI antiproliferative SRB assay, Leukemia panel; type: cell-based, Human
A549/ATCC = assay: NCI antiproliferative SRB assay, Non-Small Cell Lung Cancer panel; type: cell-based, Human
HOP-62 = assay: as above; type: cell-based, Human
NCI-H23 = assay: as above; type: cell-based, Human
NCI-H460 = assay: as above; type: cell-based, Human
HCC-2998 = assay: NCI antiproliferative SRB assay, Colon Cancer panel; type: cell-based, Human
SW-620 = assay: as above; type: cell-based, Human
U251 = assay: NCI antiproliferative SRB assay, CNS Cancer panel; type: cell-based
LOX IMVI = assay: NCI antiproliferative SRB assay, Melanoma panel; type: cell-based, Human
MALME-3M = assay: NCI antiproliferative SRB assay, Melanoma panel; type: cell-based, Human
MDA-MB-435 = assay: NCI antiproliferative SRB assay, Melanoma panel; type: cell-based
SK-MEL-28 = assay: NCI antiproliferative SRB assay, Melanoma panel; type: cell-based, Human
SK-MEL-5 = assay: NCI antiproliferative SRB assay, Melanoma panel; type: cell-based, Human
UACC-257 = assay: NCI antiproliferative SRB assay, Melanoma panel; type: cell-based, Human
IGROV1 = assay: NCI antiproliferative SRB assay, Ovarian Cancer panel; type: cell-based, Human
OVCAR-3 = assay: as above; type: cell-based, Human
SK-OV-3 = assay: as above; type: cell-based, Human
786–0 = assay: NCI antiproliferative SRB assay, Renal Cancer panel; type: cell-based, Human
CAKI-1 = assay: as above; type: cell-based, Human
UO-31 = assay: as above; type: cell-based, Human
PC-3 = assay: NCI antiproliferative SRB assay, Prostate Cancer panel; type: cell-based, Human
DU-145 = assay: as above; type: cell-based, Human
MCF7 = assay: NCI antiproliferative SRB assay, Breast Cancer panel; type: cell-based, Human
HS 578T = assay: as above; type: cell-based, Human
Leukemia cell line panel = assay: NCI antiproliferative assay, panel summary; type: cell-based, Human; conditions: for GI50: Homo sapiens
[1] = tested on: Colon Cancer cell line panel; assay: NCI antiproliferative assay, panel summary; type: cell-based, Human
[2] = tested on: CNS Cancer cell line panel; assay: NCI antiproliferative assay, panel summary; type: cell-based, Human
[3] = tested on: Ovarian Cancer cell line panel; assay: NCI antiproliferative assay, panel summary; type: cell-based, Human
[4] = tested on: Renal Cancer cell line panel; assay: NCI antiproliferative assay, panel summary; type: cell-based, Human; conditions: Renal Cancer panel
60 NCI cancer cell lines = assay: NCI antiproliferative assay, summary over all lines; type: cell-based
[5] = Homo sapiens, 5-dose 0.01-100 µM
[6] = Homo sapiens, 5-dose 0.01-100 µM, read-out: LC50 (the source's name)
[7] = Homo sapiens, 5-dose assay, read-out: Sub Panel MID b (mean GI50 of panel)
[8] = mean over cell lines, one dose 10 µM

COc1ccc(NC(=O)n2nc(/C=C/c3ccc(O)c(OC)c3)cc2/C=C/c2ccc(O)c(OC)c2)cc1 [3b]
TGI (K-562; 5-dose 0.01-100 µM): 16.9 µM
GI50 (K-562; Homo sapiens, K562, 5-dose 0.01-100 µM): 2.87 µM
CC50 (K-562; Homo sapiens, K562, 5-dose 0.01-100 µM, read-out: LC50 (the source's name)): > 100 µM
%GI (K-562; one dose 10 µM): 90.75%
GP (growth percent) (K-562; one dose 10 µM): 9.25
TGI (A549/ATCC; 5-dose 0.01-100 µM): 97.9 µM
GI50 (A549/ATCC; [5]): 5.5 µM
LC50 (50% lethal concentration) (A549/ATCC; [5]): > 100 µM
%GI (A549/ATCC; one dose 10 µM): 72.71%
GP (growth percent) (A549/ATCC; one dose 10 µM): 27.29
TGI (HOP-62; 5-dose 0.01-100 µM): 42.8 µM
GI50 (HOP-62; [5]): 3.65 µM
CC50 (HOP-62; [6]): > 100 µM
%GI (HOP-62; one dose 10 µM): 67.25%
GP (growth percent) (HOP-62; one dose 10 µM): 32.75
TGI (NCI-H23; 5-dose 0.01-100 µM): 63.8 µM
GI50 (NCI-H23; [5]): 3.81 µM
CC50 (NCI-H23; [6]): > 100 µM
%GI (NCI-H23; one dose 10 µM): 56.06%
GP (growth percent) (NCI-H23; one dose 10 µM): 43.94
TGI (NCI-H460; 5-dose 0.01-100 µM): 31.4 µM
GI50 (NCI-H460; [5]): 4.24 µM
CC50 (NCI-H460; [6]): > 100 µM
%GI (NCI-H460; one dose 10 µM): 85.78%
GP (growth percent) (NCI-H460; one dose 10 µM): 14.22
TGI (HCC-2998; 5-dose 0.01-100 µM): >100 µM
GI50 (HCC-2998; [5]): 5.78 µM
CC50 (HCC-2998; [6]): > 100 µM
%GI (HCC-2998; one dose 10 µM): 25.09%
GP (growth percent) (HCC-2998; one dose 10 µM): 74.91
TGI (SW-620; 5-dose 0.01-100 µM): 61.6 µM
GI50 (SW-620; [5]): 5.51 µM
CC50 (SW-620; [6]): > 100 µM
%GI (SW-620; one dose 10 µM): 72.90%
GP (growth percent) (SW-620; one dose 10 µM): 27.10
GI50 (U251; Homo sapiens, U-251): 3.55 µM
CC50 (U251; Homo sapiens, U-251, U251, 5-dose 0.01-100 µM, read-out: LC50 (the source's name)): > 100 µM
TGI (U251; U251, 5-dose 0.01-100 µM): 20.9 µM
%GI (U251; U251, one dose 10 µM): 73.97%
GP (growth percent) (U251; U251, one dose 10 µM): 26.03
TGI (LOX IMVI; 5-dose 0.01-100 µM): >100 µM
GI50 (LOX IMVI; [5]): 3.95 µM
CC50 (LOX IMVI; [6]): > 100 µM
%GI (LOX IMVI; one dose 10 µM): 72.41%
GP (growth percent) (LOX IMVI; one dose 10 µM): 27.59
TGI (MALME-3M; 5-dose 0.01-100 µM): 38.6 µM
GI50 (MALME-3M; [5]): 3.66 µM
CC50 (MALME-3M; [6]): > 100 µM
%GI (MALME-3M; one dose 10 µM): 48.14%
GP (growth percent) (MALME-3M; one dose 10 µM): 51.86
TGI (MDA-MB-435; 5-dose 0.01-100 µM): 4.68 µM
GI50 (MDA-MB-435; Homo sapiens): 1.25 µM
CC50 (MDA-MB-435; [6]): > 100 µM
%GI (MDA-MB-435; one dose 10 µM): 136.25%
GP (growth percent) (MDA-MB-435; one dose 10 µM): −36.25
TGI (SK-MEL-28; 5-dose 0.01-100 µM): 92.7 µM
GI50 (SK-MEL-28; [5]): 3.52 µM
CC50 (SK-MEL-28; [6]): > 100 µM
%GI (SK-MEL-28; one dose 10 µM): 65.47%
GP (growth percent) (SK-MEL-28; one dose 10 µM): 34.53
TGI (SK-MEL-5; 5-dose 0.01-100 µM): 16.1 µM
GI50 (SK-MEL-5; [5]): 3.67 µM
CC50 (SK-MEL-5; [6]): > 100 µM
%GI (SK-MEL-5; one dose 10 µM): 90.96%
GP (growth percent) (SK-MEL-5; one dose 10 µM): 9.04
TGI (UACC-257; 5-dose 0.01-100 µM): 64.8 µM
GI50 (UACC-257; [5]): 16.7 µM
CC50 (UACC-257; [6]): > 100 µM
%GI (UACC-257; one dose 10 µM): 24.78%
GP (growth percent) (UACC-257; one dose 10 µM): 75.22
TGI (IGROV1; 5-dose 0.01-100 µM): 57.0 µM
GI50 (IGROV1; Homo sapiens, IGROV-1, 5-dose 0.01-100 µM): 4.49 µM
CC50 (IGROV1; Homo sapiens, IGROV-1, 5-dose 0.01-100 µM, read-out: LC50 (the source's name)): > 100 µM
%GI (IGROV1; one dose 10 µM): 65.61%
GP (growth percent) (IGROV1; one dose 10 µM): 34.39
TGI (OVCAR-3; 5-dose 0.01-100 µM): 8.40 µM
GI50 (OVCAR-3; [5]): 2.98 µM
CC50 (OVCAR-3; [6]): > 100 µM
%GI (OVCAR-3; one dose 10 µM): 86.38%
GP (growth percent) (OVCAR-3; one dose 10 µM): 13.62
TGI (SK-OV-3; 5-dose 0.01-100 µM): 27.5 µM
GI50 (SK-OV-3; [5]): 3.66 µM
CC50 (SK-OV-3; [6]): > 100 µM
%GI (SK-OV-3; one dose 10 µM): 39.26%
GP (growth percent) (SK-OV-3; one dose 10 µM): 60.74
TGI (786–0; 5-dose 0.01-100 µM): 24.3 µM
GI50 (786–0; [5]): 4 µM
CC50 (786–0; [6]): > 100 µM
%GI (786–0; one dose 10 µM): 67.92%
GP (growth percent) (786–0; one dose 10 µM): 32.08
TGI (CAKI-1; 5-dose 0.01-100 µM): >100 µM
GI50 (CAKI-1; [5]): 3.6 µM
CC50 (CAKI-1; [6]): > 100 µM
%GI (CAKI-1; one dose 10 µM): 61.94%
GP (growth percent) (CAKI-1; one dose 10 µM): 38.06
TGI (UO-31; 5-dose 0.01-100 µM): 36.4 µM
GI50 (UO-31; [5]): 1.52 µM
LC50 (50% lethal concentration) (UO-31; [5]): > 100 µM
%GI (UO-31; one dose 10 µM): 77.33%
GP (growth percent) (UO-31; one dose 10 µM): 22.67
TGI (PC-3; 5-dose 0.01-100 µM): >100 µM
GI50 (PC-3; [5]): 5.11 µM
CC50 (PC-3; [6]): > 100 µM
%GI (PC-3; one dose 10 µM): 71.57%
GP (growth percent) (PC-3; one dose 10 µM): 28.43
TGI (DU-145; 5-dose 0.01-100 µM): 24.6 µM
GI50 (DU-145; [5]): 3.99 µM
CC50 (DU-145; [6]): > 100 µM
%GI (DU-145; one dose 10 µM): 72.77%
GP (growth percent) (DU-145; one dose 10 µM): 27.23
TGI (MCF7; 5-dose 0.01-100 µM): 17.0 µM
GI50 (MCF7; [5]): 3.3 µM
CC50 (MCF7; [6]): > 100 µM
%GI (MCF7; one dose 10 µM): 84.37%
GP (growth percent) (MCF7; one dose 10 µM): 15.63
TGI (HS 578T; 5-dose 0.01-100 µM): 61.9 µM
GI50 (HS 578T; [5]): 6.77 µM
CC50 (HS 578T; [6]): > 100 µM
%GI (HS 578T; one dose 10 µM): 71.29%
GP (growth percent) (HS 578T; one dose 10 µM): 28.71
Mean % GI (Leukemia cell line panel; 10 µM): 88.02%
Selectivity Ratio (MID a:MID b) (Leukemia cell line panel; 5-dose assay): 1.89
GI50 (Leukemia cell line panel; 5-dose assay, read-out: GI50 values, range over the leukemia panel): 1.52 to 3.38 µM
GI50 (Leukemia cell line panel; 5-dose assay, read-out: Sub Panel MID b (mean GI50 of panel)): 2.59 µM
Mean % GI ([1]; 10 µM): 60%
Selectivity Ratio (MID a:MID b) ([1]; 5-dose assay): 0.85
GI50 [1, 7]: 5.77 µM
Mean % GI ([2]; 10 µM): 67.06%
Selectivity Ratio (MID a:MID b) ([2]; 5-dose assay): 1.28
GI50 [2, 7]: 3.83 µM
Mean % GI ([3]; 10 µM): 60.11%
Selectivity Ratio (MID a:MID b) ([3]; 5-dose assay): 0.76
GI50 [3, 7]: 6.46 µM
GI50 [4, 7]: 5.84 µM
Mean % GI ([4]; 10 µM): 60.54%
Selectivity Ratio (MID a:MID b) ([4]; 5-dose assay): 0.84
GI50 (60 NCI cancer cell lines; Homo sapiens, read-out: GI50 values, range over cell lines): 1.25 to 18.8 µM
CC50 (60 NCI cancer cell lines; Homo sapiens, 5-dose assay, read-out: LC50 over cell lines): > 100 µM
GI50 (60 NCI cancer cell lines; Homo sapiens, 5-dose assay, read-out: MID a (mean GI50 of 60 NCI cancer cell lines)): 4.89 µM
Mean % GI (60 NCI cancer cell lines; [8]): 66.46%
Mean GP (60 NCI cancer cell lines; [8]): 33.54
